Some results are limits rather than exact numbers.

For experiment [1], the target named is T1, D2-DOP-CLONE (Rattus norvegicus, UniProt P61169).
T1 construct: expressed in transfected cells; host or cells: CHO-K1
The experiment can be described thus: Competition binding against [3H]-86170, cloned rat D2 receptors expressed in CHO-K1 cells (Table I). The arrangement: key to Ki (nM): *: indicates compound was inactive. The note with it: ligand 86170 (2 nM). As to the method:
(§1) Competition binding experiments employed eleven dilutions of test compounds of Formula I competing with [^3 H]-5-(dipropylamino)-5,6-dihydro-4H-imidazo(4,5,1-ij)quinolin-2(1H)-one (R-enantiomer) ("86170") (62 Ci/mmol, 2 nM) and [^3 H]-spiperone ("SPI") (107 Ci/mmol, 0.5 nM) for D2 and D3 binding sites, respectively. (Lahti, R. A., Eur. J. Pharmacol., 202, 289 (1991)) In each experiment, cloned rat receptors expressed in CHO-K1 cells were used. (Chio, C. L., Nature, 343, 266 (1990); and Huff, R. M., Mol. Pharmacol. 45, 51-60 (1993)).

Experiment [2] addresses T2, D3-DOP-CLONE (Rattus norvegicus, UniProt P19020).
T2 construct: expressed in transfected cells; host or cells: CHO-K1
Kind of experiment: Competition binding against [3H]-spiperone, cloned rat D3 receptors expressed in CHO-K1 cells (Table I). Set-up: key to Ki (nM): *: indicates compound was inactive. To be noted: ligand SPI (0.5 nM). As to the method: as §1

In a further experiment the test system is Dopamine. The experiment can be described thus: Dopamine screen. It counts as binding.
For experiment [3], the target named is T1, D2-DOP-CLONE. Kind of experiment: Competition binding against [3H]-86170, cloned rat D2 receptors expressed in CHO-K1 cells (Table II). The note with it: ligand 86170 (2 nM). As to the method: as §1, with “As was done for Table I, competition binding” for “Competition binding”, “Formula II” for “Formula I”, “[^3 H]-7-OH-DPAT ("7-OH-DPAT")” for “[^3 H]-spiperone ("SPI")”, “Mol. Pharmacol.,” for “Mol. Pharmacol.”, “51-60 (1993). Ki values were calculated with the Chen-Prushoff equation. The results are shown in Table II for compounds prepared under Scheme 5.” for “51-60 (1993)).”

Experiment [4] deals with T2, D3-DOP-CLONE. The experiment can be described thus: Competition binding against [3H]-7-OH-DPAT, cloned rat D3 receptors expressed in CHO-K1 cells (Table II). To be noted: ligand 7-OH-DPAT (0.5 nM). The method, then: as §1, with “As was done for Table I, competition binding” for “Competition binding”, “Formula II” for “Formula I”, “[^3 H]-7-OH-DPAT ("7-OH-DPAT")” for “[^3 H]-spiperone ("SPI")”, “Mol. Pharmacol.,” for “Mol. Pharmacol.”, “51-60 (1993). Ki values were calculated with the Chen-Prushoff equation. The results are shown in Table II for compounds prepared under Scheme 5.” for “51-60 (1993)).”

T1 sequence (P61169 whole entry): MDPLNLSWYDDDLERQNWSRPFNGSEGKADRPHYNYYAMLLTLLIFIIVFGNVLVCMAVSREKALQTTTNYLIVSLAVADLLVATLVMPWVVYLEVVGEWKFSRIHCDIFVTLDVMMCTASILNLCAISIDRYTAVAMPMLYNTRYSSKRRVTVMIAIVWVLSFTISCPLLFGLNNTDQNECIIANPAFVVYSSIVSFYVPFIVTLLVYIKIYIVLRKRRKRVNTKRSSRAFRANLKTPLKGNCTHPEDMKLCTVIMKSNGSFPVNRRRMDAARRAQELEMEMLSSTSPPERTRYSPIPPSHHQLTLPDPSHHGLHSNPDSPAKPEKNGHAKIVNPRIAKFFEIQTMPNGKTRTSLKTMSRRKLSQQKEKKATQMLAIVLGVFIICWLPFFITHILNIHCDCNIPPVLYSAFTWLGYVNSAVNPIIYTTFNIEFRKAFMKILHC
T2 sequence (P19020 whole entry): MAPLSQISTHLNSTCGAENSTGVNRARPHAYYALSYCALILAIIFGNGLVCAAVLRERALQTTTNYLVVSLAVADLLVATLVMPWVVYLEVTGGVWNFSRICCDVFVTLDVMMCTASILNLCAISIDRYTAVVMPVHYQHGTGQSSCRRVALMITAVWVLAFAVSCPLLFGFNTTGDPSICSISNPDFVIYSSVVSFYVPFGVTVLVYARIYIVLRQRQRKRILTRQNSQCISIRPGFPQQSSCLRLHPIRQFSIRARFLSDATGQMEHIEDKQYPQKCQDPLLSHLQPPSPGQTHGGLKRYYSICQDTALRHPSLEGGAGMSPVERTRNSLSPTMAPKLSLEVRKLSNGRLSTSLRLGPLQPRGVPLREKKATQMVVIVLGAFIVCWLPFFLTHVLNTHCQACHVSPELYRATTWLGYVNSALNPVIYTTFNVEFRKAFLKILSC

On to `CCCN(CCC)[C@@H]1CCc2ccc(CNS(=O)(=O)c3ccc(Cl)cc3)cc2C1` [Example 3, (R)-4-Chloro-N-[[7-(dipropylamino)-5,6,7,8-tetrahydro-2-naphthalenyl]methyl]benzenesulfonamide], for which the values for the Ki at D2-DOP-CLONE [1] and on D3-DOP-CLONE [2] were 206 nM and 12 nM, respectively.

In the case of `CCCN(CCC)[C@@H]1CCc2ccc(NS(=O)(=O)c3ccc(C#N)cc3)cc2C1` [Example 11, (R)-4-Cyano-N-[7-(dipropylamino)-5,6,7,8-tetrahydro-2-naphthalenyl]benzenesulfonamide], the results for the Ki on D2-DOP-CLONE [1] and on D3-DOP-CLONE [2] were > 2240 nM and 195 nM, respectively.

Take `CCCN(CCC)[C@@H]1CCc2ccc(CNS(=O)(=O)c3ccc(C#N)cc3)cc2C1` [Example 2, (R)-4-Cyano-N-[[7-(dipropylamino)-5,6,7,8-tetrahydro-2-naphthalenyl]methyl]benzenesulfonamide]: the values for the Ki on D2-DOP-CLONE [1] and at D3-DOP-CLONE [2] were 1440 nM and 32 nM, respectively.

Consider `CCCN(CCC)[C@@H]1CCc2ccc(CNS(=O)(=O)c3cccc(C#N)c3)cc2C1` [Example 5, (R)-3-Cyano-N-[[7-(dipropylamino)-5,6,7,8-tetrahydro-2-naphthalenyl]methyl]benzenesulfonamide], for which the inhibition constant Ki (usually the equilibrium dissociation constant of an inhibitor or competing ligand from its target) on D2-DOP-CLONE [1] worked out at 786 nM. Besides, the “Ki (nM)” value on D3-DOP-CLONE [2] is “*”. In addition, the “activity in dopamine screen” value in the experiment on Dopamine is recorded as “Inactive”.

Turning to `CCCNC1CCc2nc(OS(=O)(=O)c3ccc(Cl)cc3)ccc2C1` (centres unmarked) [Compound 52], the inhibition constant (Ki) at D2-DOP-CLONE [3] came out at 357 nM; on D3-DOP-CLONE [4], 6 nM.

`CCCN(CCC)[C@@H]1CCc2ccc(CNS(=O)(=O)c3cn(C)cn3)cc2C1` [Example 6, (R)-N-[[7-(Dipropylamino)-5,6,7,8-tetrahydro-2-naphthalenyl]methyl]1-methyl-1H-imidazole-4-sulfonamide]: the Ki is 1680 nM at D2-DOP-CLONE [1] and 1450 nM at D3-DOP-CLONE [2].

On to `CCCN(CCC)[C@@H]1CCc2ccc(CNC(=O)c3ccc(Cl)cc3)cc2C1` [Example 8, (R)-4Chloro-N-[[7-(dipropylamino)-5,6,7,8-tetrahydro-2-naphthalenyl]methyl]benzamide], for which the Ki is 177 nM at D2-DOP-CLONE [1] and 87 nM on D3-DOP-CLONE [2].

As to `CCCN(CCC)C1CCc2nc(OS(=O)(=O)c3ccc(Cl)cc3)ccc2C1` (centres unmarked) [Compound 53], the Ki at D2-DOP-CLONE [3] came out at 184 nM; at D3-DOP-CLONE [4], 3 nM.

Regarding `CCCN(CCC)[C@@H]1CCc2ccc(CNS(=O)(=O)c3ccc([N+](=O)[O-])cc3)cc2C1` [Example 4, (R)-4-Nitro-N-[[7-(dipropylamino)-5,6,7,8-tetrahydro-2-naphthalenyl]methyl]benzenesulfonamide], the Ki on D2-DOP-CLONE [1] is 772 nM; on D3-DOP-CLONE [2] it was 109 nM.

On to `CCCN(CCC)[C@@H]1CCc2ccc(NS(=O)(=O)c3ccc(Cl)cc3)cc2C1` [Example 10, (R)-4-Chloro-N-[7-(dipropylamino)-5,6,7,8-tetrahydro-2-naphthalenyl]benzenesulfonamide], for which the Ki on D2-DOP-CLONE [1] stood at 324 nM; at D3-DOP-CLONE [2], 18 nM.

On to `CCCN(CCC)[C@@H]1CCc2ccc(CNC(=O)c3ccc(C#N)cc3)cc2C1` [Example 9, (R)-4-Cyano-N-[[7-(dipropylamino)-5,6,7,8-tetrahydro-2-naphthalenyl]methyl]benzamide], for which the “Ki (nM)” value on D2-DOP-CLONE [1] and at D3-DOP-CLONE [2] was “*” throughout.

These data come from US6084130A, “Aryl substituted bicyclic amines as selective dopamine D3 ligands” (Pharmacia & Upjohn Company, priority 1997, dated 2000).
